Reference: article PMC8175309, “Translational CNS Steady-State Drug Disposition Model in Rats, Monkeys, and Humans for Quantitative Prediction of Brain-to-Plasma and Cerebrospinal Fluid-to-Plasma Unbound Concentration Ratios” (The AAPS Journal, 2021)
Like-named read-outs stand apart in the source and are kept apart here.

How the values were obtained:
[1] = cited from earlier work
[2] = cited from earlier work; for Kp,uu,brain Human: *3 ref Summerfield et al. (25)
[3] = Observed Kp,uu,brain and Kp,uu,CSF in monkeys; settings: monkey, *1 data internally obtained; for Kp,uu,CSF Monkey: lumbar CSF
Method: Monkey experiments were conducted internally or at the Drug Safety Research Laboratories in Shin Nippon Biomedical Laboratories via consignment to Axcelead Drug Discovery Partners. […] Detailed dosage regimen for each compound is summarized in Supplemental Table 3. […] Each cassette was assigned to a separate group of monkeys. The vehicle was saline or a mixture of dimethylacetamide and 1,3-butanediol (1:1, v/v). At the end of the 6-h infusion or 1 h after intravenous bolus administration, the monkeys were anesthetized, and whole blood, CSF, and whole brain were collected. Blood was collected using the anticoagulant, heparin sodium, and immediately centrifuged; the plasma was transferred to polypropylene tubes. Then, ketamine hydrochloride (50 mg/mL; 0.2 mL/kg; 10 mg/kg) was intramuscularly administered. CSF was collected after lumbar puncture using a spinal needle (22–25G) and a syringe pre-wetted with 10% CHAPS solution to prevent adsorption of compounds to all the equipment during pretreatment. CSF samples were immediately centrifuged, and the supernatant layers were transferred to polypropylene tubes. […] After collecting the cerebellum, hippocampus, and cerebral cortex from the whole brain, these were washed with cold saline, weighed, and homogenized immediately in 4 volumes of ice-cold 100 mmol/L sodium phosphate buffer. All samples were stored at –80°C until analysis by LC-MS/MS. Each sample (50 μL) was mixed with the working solution (the mixture of dimethyl sulfoxide and acetonitrile (2:8, v/v)), and protein was precipitated by the addition of 150 μL acetonitrile containing the internal standards (5 ng/mL alprenolol and diclofenac). After centrifugation at 5,250 rpm and 4°C for 5 min, the supernatant (150 μL) was transferred to a polypropylene 96-well plate (Corning; Corning, NY, USA) and completely evaporated under a gentle stream of N2. The residue was reconstituted in dilution solution (mobile phase A/B (7:3, v/v)), and the supernatant was analyzed by LC-MS/MS.
Each sample (50 μL) was mixed with the working solution (the mixture of dimethyl sulfoxide and acetonitrile (2:8, v/v)), and the protein was precipitated by adding 150 μL acetonitrile containing internal standards (5 ng/mL alprenolol and diclofenac). After centrifugation at 5250 rpm and 4°C for 5 min, the supernatant (150 μL) was transferred to a polypropylene 96-well plate (Corning) and completely evaporated under a gentle stream of N2. The residue was reconstituted in mobile phase A/B (7:3, v/v)), and the supernatant was analyzed by LC-MS/MS. API5000 and QTRAP5500 (AB SCIEX, Framingham, MA, USA) equipped with Ultra-Fast Liquid Chromatography (Shimadzu, Kyoto, Japan) were used for determination of drug concentrations. Reversed-phase chromatography was performed using Shim-pack XR ODS (2.2 μm, 2.0×30 mm). Mobile phase A consisted of 10 mM ammonium formate with 0.2% formic acid, and mobile phase B contained acetonitrile with 0.2% formic acid. […] The mass spectrometer was operated in the positive ionization mode with multiple reaction monitoring (MRM). The MRM parameters (Q1 ion, Q3 ion, DP, EP, CE, and CXP) for monitoring the compounds are shown in Supplemental Table 4. Data acquisition and processing were performed using Analyst 1.6.2 (AB SCIEX, Framingham, MA, USA).
To perform correlation analyses between the observed Kp,uu,brain and Kp,uu,CSF, and the model-based prediction of Kp,uu,brain and Kp,uu,CSF, data from literature information were integrated into the internally obtained data for these assessments (Supplemental Table 2) ([17],[22]–[24],[27]–[33]). When only the total concentrations in plasma, CSF, and brain were available, the total concentration ratio in plasma to CSF or brain (Kp,CSF or Kp,brain, respectively) was estimated, followed by calculation of Kp,uu,CSF or Kp,uu,brain based on Eqs.

Row | Compound | Kp,uu,CSF Rat ([1]; *4 ref Friden et al. (21)) | Kp,uu,brain Rat ([1]; *4 ref Friden et al. (21)) | Kp,uu,CSF Human ([2]; *4 ref Friden et al. (21)) | also measured
1 | CO[C@@]1(NC(=O)C(C(=O)O)c2ccc(O)cc2)C(=O)N2C(C(=O)O)=C(CSc3nnnn3C)CO[C@@H]21 (some centres unmarked) [Moxalactam] | 0.02 | 0.019 | 0.41 | –
2 | Cc1c(O)cccc1C(=O)N[C@@H](CSc1ccccc1)[C@H](O)CN1C[C@H]2CCCC[C@H]2C[C@H]1C(=O)NC(C)(C)C [Nelfinavir] | 0.067 | 0.019 | 0.045 | Kp,uu,CSF Monkey [3]: 0.640; Kp,uu,brain Monkey [3]: 0.008
3 | O=C1CN(/N=C/c2ccc([N+](=O)[O-])o2)C(=O)N1 [Nitrofurantoin] | 0.0099 | 0.011 | – | –
4 | CCn1cc(C(=O)O)c(=O)c2cc(F)c(N3CCNCC3)cc21 [Norfloxacin] | 0.018 | 0.028 | 0.11 | –
5 | C=CCOc1ccccc1OCC(O)CNC(C)C (centres unmarked) [Oxprenolol] | 0.1 | 0.200 | – | –
6 | CN1CC[C@]23c4c5ccc(O)c4O[C@H]2C(=O)CC[C@@]3(O)[C@H]1C5 [Oxymorphone] | 0.91 | 0.790 | – | –
7 | O=C1NC(=O)C(c2ccccc2)(c2ccccc2)N1 [Phenytoin] | – | – | – | Kp,uu,brain Rat ([1]; *3 ref Summerfield et al. (25)): 0.316; Kp,uu,brain Rat ([1]; *7 ref Kodaira et al. (20)): 0.447; Kp,uu,CSF Rat ([1]; in vivo): 0.396; Kp,uu,brain Human [2]: 0.59
8 | O=C(O)C[C@H](O)C[C@H](O)/C=C/c1c(C2CC2)nc2ccccc2c1-c1ccc(F)cc1 [Pitavastatin] | – | – | – | Kp,uu,CSF Monkey [3]: 0.129; Kp,uu,brain Monkey [3]: 0.242
9 | COc1ccc(C2CNC(=O)C2)cc1OC1CCCC1 (centres unmarked) [Rolipram] | – | – | – | Kp,uu,brain Human [2]: 1.00
10 | O=C(O)c1ccccc1O [Salicylic acid] | 0.16 | 0.190 | 0.19 | –
11 | CC(C)(C)NC(=O)[C@@H]1C[C@@H]2CCCC[C@@H]2CN1C[C@@H](O)[C@H](Cc1ccccc1)NC(=O)[C@H](CC(N)=O)NC(=O)c1ccc2ccccc2n1 [Saquinavir] | – | 0.055 | 0.096 | –
12 | CSc1ccc2c(c1)N(CCC1CCCCN1C)c1ccccc1S2 (centres unmarked) [Thioridazine] | 0.21 | 0.45 | 1.4 | Kp,uu,brain Rat ([1]; *3 ref Summerfield et al. (25)): 1.425
13 | COc1cccc(C2(O)CCCCC2CN(C)C)c1 (centres unmarked) [Tramadol] | – | – | – | Kp,uu,CSF Rat ([1]; in vivo): 0.71; Kp,uu,brain Rat ([1]; in vivo): 1.460; Kp,uu,CSF Human ([2]; in vivo): 1.44
14 | O=c1n(CCCN2CCN(c3cccc(Cl)c3)CC2)nc2ccccn12 [Trazodone] | – | – | – | Kp,uu,brain Rat ([1]; *3 ref Summerfield et al. (25)): 0.957; Kp,uu,brain Human [2]: 0.93
